Experimental data as given in ChEMBL document CHEMBL1201862, “PubChem BioAssay data set” (2004).
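All cell lines were grown in 96-well plates and treated with compound for 48 hours. The concentration for 50% growth inhibition is given as GI50.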 Calls of active or inactive are those of the source. No stated cut-off is given here; in the data, active = GI50 up to about 1.1 µM and inactive = higher.

Key:
Experiment in all cases: inhibition of tumour cell growth, NCI panel, 48 h
IGROV-1 = tested on: IGROV-1
SK-MEL-2 = tested on: SK-MEL-2
OVCAR-8 = tested on: OVCAR-8
T47D = tested on: T47D
NCI-H226 = tested on: NCI-H226
HCT-116 = tested on: HCT-116
MCF7 = tested on: MCF7
Hs-578T = tested on: Hs-578T
SK-OV-3 = tested on: SK-OV-3
COLO 205 = tested on: COLO 205
BT-549 = tested on: BT-549
EKVX = tested on: EKVX
CAKI-1 = tested on: CAKI-1
SF-268 = tested on: SF-268
DU-145 = tested on: DU-145
NCI-H23 = tested on: NCI-H23
OVCAR-5 = tested on: OVCAR-5
OVCAR-4 = tested on: OVCAR-4
RXF 393 = tested on: RXF 393
RPMI-8226 = tested on: RPMI-8226

Measured: GI50

CC(C)C(C/C=C1\CC(CO)(COC(=O)CC(C(C)C)C(C)C)OC1=O)C(C)C (stereo not drawn)
inactive: IGROV-1 14.7 µM | SK-MEL-2 20.9 µM | OVCAR-8 17.9 µM | T47D 13.3 µM | NCI-H226 9.04 µM | HCT-116 14.1 µM | MCF7 15.7 µM | Hs-578T 3.8 µM | SK-OV-3 17.7 µM | COLO 205 1.49 µM | BT-549 14.6 µM | EKVX 10 µM | CAKI-1 6.87 µM | SF-268 14.2 µM | DU-145 8.85 µM | NCI-H23 15 µM | OVCAR-5 13.9 µM | OVCAR-4 17.6 µM | RXF 393 14.5 µM

CC(=O)O.CN1CCN(CN2C(=O)C3C4C=CC(C3C2=O)C2C3C(=O)N(CN5CCN(C)CC5)C(=O)C3C42)CC1 (stereo not drawn)
inactive: IGROV-1 35.5 µM | RPMI-8226 22.2 µM | OVCAR-8 27.8 µM | T47D 30 µM | HCT-116 16.6 µM | MCF7 32.3 µM | Hs-578T > 100 µM | COLO 205 19 µM | BT-549 25.5 µM | SF-268 27.5 µM | DU-145 25.1 µM | NCI-H23 20.7 µM | OVCAR-5 23.9 µM | OVCAR-4 21.4 µM | RXF 393 17.7 µM

C=C1C2CCC3(CCC4C5(C)CCCC4(C=[N+](CCO)C5)C3C2)C1O (stereo not drawn)
inactive: IGROV-1 > 100 µM | SK-MEL-2 > 100 µM | RPMI-8226 > 100 µM | OVCAR-8 > 100 µM | T47D > 100 µM | HCT-116 > 100 µM | MCF7 > 100 µM | Hs-578T > 100 µM | SK-OV-3 > 100 µM | COLO 205 > 100 µM | BT-549 > 100 µM | EKVX > 100 µM | CAKI-1 > 100 µM | SF-268 > 100 µM | DU-145 > 100 µM | NCI-H23 > 100 µM | OVCAR-5 > 100 µM | OVCAR-4 > 100 µM | RXF 393 > 100 µM

C/C=C(/COC(C)=O)C(=O)OC1C=C(C=O)C(C)(C)C=C1C (stereo not drawn)
inactive: IGROV-1 96.6 µM | SK-MEL-2 > 100 µM | OVCAR-8 > 100 µM | T47D > 100 µM | NCI-H226 > 100 µM | HCT-116 > 100 µM | MCF7 87.7 µM | Hs-578T > 100 µM | SK-OV-3 > 100 µM | COLO 205 > 100 µM | BT-549 > 100 µM | EKVX > 100 µM | CAKI-1 > 100 µM | SF-268 > 100 µM | DU-145 > 100 µM | NCI-H23 > 100 µM | OVCAR-5 > 100 µM | OVCAR-4 > 100 µM

CC[N+]1(C)CCC(O)(/C=C/c2ccc(Cl)c(Cl)c2)C(C(=O)/C=C/c2ccc(Cl)c(Cl)c2)C1 (stereo not drawn)
inactive: IGROV-1 2.96 µM | SK-MEL-2 3.86 µM | RPMI-8226 2.17 µM | OVCAR-8 2.55 µM | T47D 1.8 µM | NCI-H226 4.08 µM | HCT-116 1.57 µM | MCF7 2.36 µM | Hs-578T 2.91 µM | SK-OV-3 3.41 µM | COLO 205 2.65 µM | BT-549 2.96 µM | EKVX 11.1 µM | CAKI-1 4.07 µM | SF-268 2.67 µM | DU-145 2.71 µM | NCI-H23 2.57 µM | OVCAR-5 2.62 µM | RXF 393 2.04 µM

C[C@]12CC[C@@H]3c4cc(Br)c(O)c(Br)c4CC[C@H]3[C@@H]1CCC2=O
inactive: IGROV-1 38.1 µM | SK-MEL-2 15 µM | OVCAR-8 19 µM | T47D 33.9 µM | NCI-H226 7.87 µM | HCT-116 27.5 µM | MCF7 21.4 µM | Hs-578T 21.9 µM | SK-OV-3 31.4 µM | COLO 205 > 100 µM | BT-549 23.8 µM | EKVX 25.5 µM | CAKI-1 18.9 µM | SF-268 23.3 µM | DU-145 39.6 µM | NCI-H23 13.8 µM | OVCAR-5 21.8 µM | OVCAR-4 13.3 µM | RXF 393 16.7 µM

CCC(C)C(=O)OC1CC2(C)C(c3ccoc3)OC(=O)CC23OC2(C)OC34C(OC(=O)C(C)C)C3(O)C(OC(=O)C5(C)OC5C)C5(C)CC3(O)C(C)(C5CC(=O)OC)C14O2 (stereo not drawn)
inactive: IGROV-1 64.4 µM | SK-MEL-2 68.7 µM | OVCAR-8 52.6 µM | T47D 23.1 µM | NCI-H226 51.6 µM | HCT-116 54.7 µM | MCF7 17.6 µM | Hs-578T 14.5 µM | SK-OV-3 > 100 µM | COLO 205 20 µM | BT-549 60.7 µM | EKVX 24.3 µM | CAKI-1 57.3 µM | SF-268 47.2 µM | DU-145 68.2 µM | NCI-H23 54.3 µM | OVCAR-5 91.2 µM | OVCAR-4 38.4 µM

Nc1cc2ncnn2c(SCC(=O)N/N=C/C(Br)=C\c2ccccc2)n1
inactive: IGROV-1 11.5 µM | RPMI-8226 10.6 µM | OVCAR-8 15.9 µM | T47D 3.49 µM | NCI-H226 20 µM | HCT-116 21.7 µM | MCF7 14.7 µM | Hs-578T 23.1 µM | COLO 205 19.1 µM | BT-549 17.3 µM | EKVX 22.5 µM | CAKI-1 17.9 µM | DU-145 > 10 µM | NCI-H23 10.8 µM | OVCAR-5 22.1 µM | RXF 393 15.8 µM
